Measurements published in patent publication US20200017495A1, “NOVEL HETEROCYCLIC COMPOUNDS AND THEIR USE IN PREVENTING OR TREATING BACTERIAL INFECTIONS” (priority 2017, published 2020).

Experiments:
Format in all cases: cell-based
[1] = system: Proteus mirabilis (PMI) isolates; assay: microbe, parasite or virus in culture
Experimental: (§1) Method 2: MIC of Compounds Alone and Combined with Antibacterials Against Bacterial Isolates
Compounds of the present invention were assessed against genotyped bacterial strains (Table 3, 4) alone or in combination with an antibacterial (Table 2). […] Log phase bacterial suspensions were adjusted to a final density of 5.10^5 CFU/mL in cation-adjusted Mueller-Hinton broth (ca-MHB; Becton-Dickinson and Company) and added to each well (98 μL). Microplates were incubated for 16-20 h at 35° C. in ambient air. The MIC of the compounds was defined as the lowest concentration of said compounds that prevented bacterial growth as read by visual inspection. The MIC of ATB at each compound concentration was defined as the lowest concentration of ATB that prevented bacterial growth as read by visual inspection.

[2] = system: Providencia stuartii (PST) isolates; assay: MIC of compounds alone and combined with antibacterials, broth microdilution (CLSI)
Experimental: as §1
(§2) Compounds of the present invention were assessed against genotyped bacterial strains (Table 3, 4) alone or in combination with an antibacterial (Table 2). […]. Briefly, compounds alone according to the invention were prepared in DMSO and spotted (2 μL each) on sterile polystyrene plates (Corning, 3788). Combinations of compounds and antibiotics dilutions were prepared in DMSO and spotted (1 μL each) on sterile polystyrene plates (Corning, 3788). Log phase bacterial suspensions were adjusted to a final density of 5.10^5 CFU/mL in cation-adjusted Mueller-Hinton broth (ca-MHB; Becton-Dickinson and Company) and added to each well (98 μL). Microplates were incubated for 16-20 h at 35° C. in ambient air. The MIC of the compounds was defined as the lowest concentration of said compounds that prevented bacterial growth as read by visual inspection. The MIC of ATB at each compound concentration was defined as the lowest concentration of ATB that prevented bacterial growth as read by visual inspection.

[3] = system: Citrobacter murliniae (CMU) isolates; assay: as above; details: for MIC ATB in combination: CMU 210102
Experimental: as §1, §2

[4] = system: Salmonella typhimurium (STY) isolates; assay: as above; details: for MIC ATB in combination: STY S3371
Experimental: as §1, §2

C=CC1=C(C(=O)O)N2C(=O)[C@@H](NC(=O)/C(=N\OCC(=O)O)c3csc(N)n3)[C@H]2SC1 [FIX, Cefixime]
0.5 µg/mL: MIC ATB in combination ([1]; PMI UFR128, CLA @ 4 μg/mL) | MIC ([1]; strain PMI UFR120, genotype TEM-1, SHV-11, CTX-M-14) | MIC ([1]; strain PMI UFR125, genotype CTX-M-71) | MIC ([2]; strain PST UFR94, genotype CTX-M-14)
64 µg/mL: MIC ATB in combination ([2]; strain PST UFR98, with AF2 @ 8 μg/mL)
8 µg/mL: MIC ATB in combination ([1]; PMI UFR130, CLA @ 4 μg/mL) | MIC ([1]; strain PMI UFR82, genotype CMY-2) | MIC ([1]; strain PMI UFR130, genotype CMY-2) | MIC ATB in combination ([2]; PST UFR95, CLA @ 4 μg/mL) | MIC ATB in combination ([2]; PST UFR235, CLA @ 4 μg/mL)
32 µg/mL: MIC ATB in combination ([2]; strain PST UFR98, with AF3 @ 8 μg/mL)
>128 µg/mL: MIC ([1]; strain PMI UFR124, genotype CTX-M-2) | MIC ([1]; strain PMI UFR127, compound alone) | MIC ([1]; strain PMI UFR127, genotype VEB-1) | MIC ([1]; strain PMI UFR128, genotype VEB-1, OXA-10) | MIC ([1]; strain PMI UFR129, genotype TEM-1, VEB-6) | MIC ([1]; strain PMI UFR131, genotype CMY-16, OXA-1, OXA-10, NDM-1, ArmA) | MIC ATB in combination ([1]; strain PMI UFR131, with CLA @ 4 μg/mL) | MIC ([1]; strain PMI UFR132, genotype VEB-6, DHA-1, NDM-1, AphA6, AacA4) | MIC ATB in combination ([1]; strain PMI UFR132, with CLA @ 4 μg/mL) | MIC ([1]; strain PMI UFR237, genotype VEB-6) | MIC ([2]; strain PST UFR98, genotype TEM-1, CMY-6, OXA-1, NDM-1, RmtC) | MIC ATB in combination ([2]; strain PST UFR98, with CLA @ 4 μg/mL) | MIC ATB in combination ([3]; AF2 @ 8 μg/mL) | MIC ATB in combination ([3]; AF3 @ 8 μg/mL) | MIC ATB in combination ([3]; CLA @ 4 μg/mL) | MIC ([3]; strain CMU 210102, genotype VIM-4)
<0.25 µg/mL: MIC ATB in combination ([1]; PMI UFR82, AF2 @ 8 μg/mL) | MIC ATB in combination ([1]; PMI UFR82, AF3 @ 8 μg/mL) | MIC ATB in combination ([1]; PMI UFR126, AF2 @ 8 μg/mL) | MIC ATB in combination ([1]; PMI UFR126, AF3 @ 8 μg/mL) | MIC ATB in combination ([1]; PMI UFR127, AF2 @ 8 μg/mL) | MIC ATB in combination ([1]; PMI UFR127, AF3 @ 8 μg/mL) | MIC ATB in combination ([1]; PMI UFR128, AF2 @ 8 μg/mL) | MIC ATB in combination ([1]; PMI UFR128, AF3 @ 8 μg/mL) | MIC ATB in combination ([1]; PMI UFR129, AF2 @ 8 μg/mL) | MIC ATB in combination ([1]; PMI UFR129, AF3 @ 8 μg/mL) | MIC ATB in combination ([1]; PMI UFR130, AF2 @ 8 μg/mL) | MIC ATB in combination ([1]; PMI UFR130, AF3 @ 8 μg/mL) | MIC ATB in combination ([1]; PMI UFR133, AF2 @ 8 μg/mL) | MIC ATB in combination ([1]; PMI UFR133, AF3 @ 8 μg/mL) | MIC ATB in combination ([1]; PMI UFR237, AF2 @ 8 μg/mL) | MIC ATB in combination ([1]; PMI UFR237, AF3 @ 8 μg/mL) | MIC ATB in combination ([1]; strain PMI UFR131, with AF2 @ 8 μg/mL) | MIC ATB in combination ([1]; strain PMI UFR131, with AF3 @ 8 μg/mL) | MIC ATB in combination ([1]; strain PMI UFR132, with AF2 @ 8 μg/mL) | MIC ATB in combination ([1]; strain PMI UFR132, with AF3 @ 8 μg/mL) | MIC ATB in combination ([2]; PST UFR120, AF2 @ 8 μg/mL) | MIC ATB in combination ([2]; PST UFR120, AF3 @ 8 μg/mL) | MIC ATB in combination ([2]; PST UFR121, AF2 @ 8 μg/mL) | MIC ATB in combination ([2]; PST UFR121, AF3 @ 8 μg/mL) | MIC ATB in combination ([2]; PST UFR122, AF2 @ 8 μg/mL) | MIC ATB in combination ([2]; PST UFR122, AF3 @ 8 μg/mL) | MIC ATB in combination ([2]; PST UFR123, AF2 @ 8 μg/mL) | MIC ATB in combination ([2]; PST UFR123, AF3 @ 8 μg/mL) | MIC ATB in combination ([2]; PST UFR124, AF2 @ 8 μg/mL) | MIC ATB in combination ([2]; PST UFR124, AF3 @ 8 μg/mL) | MIC ATB in combination ([2]; PST UFR125, AF2 @ 8 μg/mL) | MIC ATB in combination ([2]; PST UFR125, AF3 @ 8 μg/mL) | MIC ATB in combination ([4]; AF2 @ 8 μg/mL) | MIC ATB in combination ([4]; AF3 @ 8 μg/mL)
4 µg/mL: MIC ATB in combination ([1]; PMI UFR82, CLA @ 4 μg/mL) | MIC ([2]; strain PST UFR95, genotype TEM-24)
<=0.25 μg/mL: MIC ATB in combination ([1]; PMI UFR126, CLA @ 4 μg/mL) | MIC ATB in combination ([1]; PMI UFR127, CLA @ 4 μg/mL) | MIC ATB in combination ([1]; PMI UFR129, CLA @ 4 μg/mL) | MIC ATB in combination ([1]; PMI UFR133, CLA @ 4 μg/mL) | MIC ATB in combination ([1]; PMI UFR237, CLA @ 4 μg/mL) | MIC ([1]; strain PMI UFR133, genotype OXA-23) | MIC ATB in combination ([2]; PST UFR94, AF2 @ 8 μg/mL) | MIC ATB in combination ([2]; PST UFR94, AF3 @ 8 μg/mL) | MIC ATB in combination ([2]; PST UFR95, AF2 @ 8 μg/mL) | MIC ATB in combination ([2]; PST UFR95, AF3 @ 8 μg/mL) | MIC ATB in combination ([2]; PST UFR120, CLA @ 4 μg/mL) | MIC ATB in combination ([2]; PST UFR121, CLA @ 4 μg/mL) | MIC ATB in combination ([2]; PST UFR122, CLA @ 4 μg/mL) | MIC ATB in combination ([2]; PST UFR123, CLA @ 4 μg/mL) | MIC ATB in combination ([2]; PST UFR124, CLA @ 4 μg/mL) | MIC ATB in combination ([2]; PST UFR125, CLA @ 4 μg/mL) | MIC ATB in combination ([2]; PST UFR235, AF2 @ 8 μg/mL) | MIC ATB in combination ([2]; PST UFR235, AF3 @ 8 μg/mL) | MIC ATB in combination ([4]; CLA @ 4 μg/mL) | MIC ([4]; strain STY S3371, genotype OXA-1)
128 µg/mL: MIC ([1]; strain PMI UFR121, genotype TEM-1, TEM-52) | MIC ([1]; strain PMI UFR123, genotype CTX-M-1)
512 µg/mL: MIC ([2]; strain PST UFR235, compound alone) | MIC ([2]; strain PST UFR235, genotype VEB-1)
1024 µg/mL: MIC ([1]; strain PMI UFR126, compound alone) | MIC ([1]; strain PMI UFR126, genotype TEM-2, PER-1)
1 µg/mL: MIC ([1]; strain PMI UFR122, genotype TEM-1, CTX-M-15)
2 µg/mL: MIC ATB in combination ([2]; PST UFR94, CLA @ 4 μg/mL)
